The subject of data set [1] is acute cerebral ischemic infarction (MCAO model). Briefly: Cerebral infarction in acute ischemic stroke, suture-occluded MCAO model. In kind it is in vivo, Wistar rat. The following applies: for therapeutic effect on cerebral infarction (words): 3 days after modeling. The method, then:
1. Experimental animals: […] Wistar male rats (230-250 g), provided by Lanzhou Veterinary Research Institute, Chinese Academy of Agricultural Sciences. 2. […] MCAO model (Middle Cerebral Artery Obstruction in rats) was established through suture-occlusion, and the rats were intraperitoneally injected with 10% chloral hydrate at a dosage of 400 mg/kg for anesthetization. The rats were fixed with supine position method to expose the neck. It was shaved and the skin was cleaned for skin incision. Under gentle operations, the main blood vessels such as left common carotid artery, arteria carotis interna, and arteria carotis externa were separated. The arteria carotis externa was selected to be ligated and disconnected, to avoid the bleeding of the common carotid artery. The common carotid artery was temporarily clamped with an arterial clip. A small opening was cut at the end of arteria carotis […], and used for the placement of the suture-occlusion. The round head of the prepared suture-occlusion was held by the ophthalmic tweezer and gently inserted, with a controlled depth of about 1.8-2.0 cm. The incision was sutured conventionally. After 0.5 h of cerebral ischemia, the suture-occlusion was removed to restore the blood supply. At a certain time after administration, the rats were sacrificed. The brain tissue was stained with 0.5% 2,3,5-triphenyltetrazolium chloride […], and the cerebral infarction area was scanned and calculated, wherein the normal tissue was stained in red and the infarcted tissue was stained in white. 3. Animal grouping: The animals were grouped as follows: the model group (acute ischemia and hypoxia pathological model, administrated with an equal dosage of physiological saline containing 8% Tween-80), the sham operation group (not administrated, as the negative control, administrated with an equal dosage of physiological saline containing 8% Tween-80), the prevention group (administrated 3 days in advance), and treatment group (administrated for 3 days after the blood supply was restored from embolism). 4. Method of administration: […] Results: […] A. Negative model control, infarct area: 30.57%; B. […] C.

A short description of data set [2]: In vivo pharmacokinetics in rats (gavage and intravenous injection), plasma HPLC-DAD. The following applies: rat. Details: species or system Wistar rats; T1/2ka: unit not given here. How it is done: Certain amounts of N-cyclopropyl-3-n-butyl-3-hydroxy-ligusticum lactam and N-cyclopropyl-3-n-butyl-3-hydroxy-phthalide lactam standards were accurately weighed respectively, and dissolved and diluted in the methanol to obtain 2.0 mg/mL of standard stock solutions. Certain standard stock solutions were accurately weighed and mixed respectively, and diluted with methanol to […], 0.7813, 1.5625, 3.1250, 6.2500, 12.500, 25.0000, 50.0000, and 500.0 μg/mL. 20 uL of each sample was analyzed by HPLC system, to sequentially determine N-cyclopropyl-3-n-butyl-3-hydroxy-ligusticum lactam and N-cyclopropyl-3-n-butyl-3-hydroxy-phthalide lactam. The peak area (A) was linearly regressed with the concentration C (g/mL), to obtain the regression equation and linear range, detection limit (LOD), and quantification limit (LOQ).
1.2 Preparation method for test sample: The compound prepared according to Example 7 (the content of N-cyclopropyl-3-n-butyl-3-hydroxy-ligusticum lactam is 92.5%; and the content of the compound N-cyclopropyl-3-n-butyl-3-hydroxy-phthalide lactam is 7.5%) was prepared into the raw stock solution at a concentration of 15 mg/mL by 10% ethanol, 20% Tween 80, and 70% physiological saline. The rats were dosed based on the body weights, with a dosage of 90 mg/Kg by oral administration (by gavage) and a dosage of 40 mg/Kg by intravenous injection.
1.3 Pretreatment method for plasma sample: 0.5 mL of rat whole blood was taken and placed in a 1.5 mL centrifuge tube with 20 uL sodium heparin therein, and centrifuged at a high rotation rate of 4×10^3 r·min^−1 for 5 min. 200 μL of plasma was taken and 800 μL of dichloromethane was added. The mixture was vortexed and centrifuged for 10 min at a rotation rate of […]. The lower layer solution was separate and blown to dryness with nitrogen gas at room temperature, and then reconstituted with 300 μL of methanol. The solution was eluted, filtered, and dried to dryness with nitrogen. After adding 30 μL of methanol, the solution was centrifuged, and 20 μL of the supernatant was used to determine the peak areas by HPLC.
1.4 Determination of pharmacokinetic parameters of phthalide derivatives in rats. Twelve male Wistar rats were randomly divided into two groups, wherein 6 rats were administrated with 40 mg/kg of phthalide derivative (the intravenous injection group (i.v.)). At 0 (pre-dose), 0.167, 0.333, 0.5, 1, 2, 3, 4, and 6 hours after administration, about 500 μL of blood was collected from the Angulus oculis, respectively, and 200 μL of plasma was frozen after anticoagulation treatment and centrifugation. 6 rats in the gavage administration (po) group were administrated by 90 mg/kg of phthalide derivative. At 0 (pre-dose), 0.5, 1, 2, 3, 4, 6, 8, 10, and 12 h after administration, about 500 μL of blood was collected from the Angulus oculis, respectively, and 200 μL of plasma was frozen after anticoagulation treatment and centrifugation. The plasma samples were warmed to the room temperature before pretreatment, and 20 μL of the sample solutions were analyzed by liquid chromatography. The blood drug concentration at each time point was calculated according to the standard curve. The dose-time curve was fitted using DAS2.0 software and the pharmacokinetic parameters were calculated. FIGS. 18 and 19 show the dose-time curves by gavage administration and intravenous injection, respectively.

For data set [3], the system named is PC12 cells. Briefly: Protection against hydrogen peroxide-induced oxidative damage to PC12 nerve cells (MTT). The settings on record: for protective effect on PC12 nerve cells against hydrogen peroxide (comparison in words): 2.5-50 μM, 250 μM H2O2, FIG. 16. In kind it is cell-based. How it is done:
2. Method: PC12 cells were cultured as follows. PC12 cells were inoculated into the high-glucose DMEM medium containing 10% fetal bovine serum, penicillin 100 U mL^−1, and streptomycin 100 μg mL^−1, and cultured in the cell incubator at 37° C. under 5% CO2. The medium was changed every other day. The cells were routinely trypsinized and passaged. The cells were used for experiments when they reached 70-80% confluence.
4. Oxidative damage modeling: PC12 cells in the logarithmic growth phase were inoculated into a 96-well cell culture plate at a density of 5×10^3 cells/well. H2O2 was added at different concentrations, and cultured for 4 h. MTT was added according to the above MTT assay, and A value of each well was measured. The H2O2 concentration at which the cell viability was reduced by 50% was finally selected as the modelling concentration.
Therefore, 250 μM was selected as the induction concentration of nerve cell oxidative damage.
5. Grouping and drug treatment: The experimental groups was divided into the normal blank control group, the H2O2 model group (250 μM), concentration groups (2.5 μM, 5.0 μM, 10 μM, 25 μM, 50 μM) for phthalides and their derivatives, and the positive control group (butylphthalide). Each group for phthalides and their derivatives as well as the positive control group were added with 250 μM H2O2, respectively. In the experiment, the solutions of phthalides and their derivatives were first added respectively, so that the final concentrations reached the corresponding values. After 4 h, H2O2 was added, and MTT was added after 24 h. The A value was measured to calculate the cell viability.

For data set [4], the system named is β-amyloid-induced neurotoxicity. The settings on record: through p38 and PI3K/Akt signaling pathways; cited from earlier work.
[5] abbreviates: treatment group, dosed for 3 days after modeling, 40 mg/kg, intraperitoneal injection.
Setting [6] is: male, Wistar, in vivo, iv, 40 mg/kg.
Where [7] appears, read: male, Wistar, in vivo, po, 90 mg/kg.
Setting [8] is: Rattus norvegicus, PC-12, read-out: cell viability.
Where [9] appears, read: po (gavage), 90 mg/kg of Example 7 mixture.

Turning to `CCCCC1(O)C2=C(C=CCC2)C(=O)N1C1CC1` (racemic) [ligustilide derivative, N-cyclopropyl-3-n-butyl-3-hydroxy-ligusticum lactam], the infarct area in data set [1] (prevention group, pre-dosed for 3 days, modeling, dosed for another 3 days, intraperitoneal injection, model control 30.57%) stood at 22%. In addition, the “anti-embolic effect” value in data set [1] (prevention group, survived animals) was “relatively weak anti-embolic effects”. In data set [1] (treatment group, 40 mg/kg, intraperitoneal injection, 40 mg/kg), the “therapeutic effect on cerebral infarction (words)” value is “complete recanalization”. For the same compound, the “therapeutic effect on cerebral infarction (words)” value in data set [1] (treatment group, 40 mg/kg, intraperitoneal injection, listed as N-cyclopropyl-3-n-butyl-3-hydroxy-ligusticum lactam, 40 mg/kg) is recorded as “effectively prevent the occurrence of cerebral infarction”. Further, in data set [1] (setting [5]), the “infarct area, middle portion” value is 0% and the “infarct area, right side, calculated according to the edema removal method” value was “negative value”. Further, in data set [1] (treatment group, dosed for 3 days after modeling, 40 mg/kg, intraperitoneal injection, model control 30.57%), the “infarct area, left side” value is given as 4%. Besides, in data set [2] (setting [6]), the AUC(0-inf) is 12100 ng·h/mL, the AUC(0-t) came to 6020 ng·h/mL, the CL1 is 5445.044 L/h/kg and the CL2 was found to be 20518.475 L/h/kg. Moreover, in data set [2] (setting [6]), the K10 worked out at 1.456 h⁻¹, the K12 stood at 5.488 h⁻¹, the K21 was determined as 1.17 h⁻¹ and the “R_AUC(t/∞)” value stood at 49.7%. In data set [2] (setting [6]), the V1 is recorded as 3739.124 L/kg, the V2 is 17537.504 L/kg, the t1/2α was 0.088 h and the t1/2β came to 3.213 h. In data set [2] (setting [7]), the AUC(0-inf) was 37100 ng·h/mL, the AUC(0-t) stood at 35300 ng·h/mL, the CL1 was determined as 2719.904 L/h/kg and the CL2 was 1163.858 L/h/kg. Also, in data set [2] (setting [7]), the CL3 turned out to be 65.258 L/h/kg, the Cmax was found to be 8820 ng/mL, the K10 worked out at 3.763 h⁻¹ and the K12 was 1.61 h⁻¹. In data set [2] (setting [7]), this compound showed a K13 of 0.09 h⁻¹, a K21 of 0.684 h⁻¹, a K31 of 0.272 h⁻¹ and a Ka of 4.021 h⁻¹. In data set [2] (setting [7]), the “R_AUC(t/∞)” value is given as 95.4%, the T1/2ka came to 0.172, the Tmax was 1.2 h and the V1 is 722.758 L/kg. In data set [2] (setting [7]), this compound registered a V2 of 1701.61 L/kg, a V3 of 240.115 L/kg, a t1/2α of 0.122 h and a t1/2β of 1.478 h. For the same compound, the t1/2γ in data set [2] (setting [7]) was 2.643 h. Moreover, the “protective effect on PC12 nerve cells against hydrogen peroxide (comparison in words)” value (“protective effect on PC12 nerve cells” below) in data set [3] was “strongest protective effect”. Also, in data set [3] (setting [8]), the viability at 2.5 µM was determined as 80% and the viability at 10 µM was 95%.

`CCC/C=C1\OC(=O)C2=C1CCC=C2` [ligustilide, reference compound]: the “concentration at which β-amyloid-induced neurotoxicity is inhibited” value in data set [4] was 1 to 30 µM. Further, the “protective effect on PC12 nerve cells” value in data set [3] is reported as “stronger than that of n-butenylphthalide”.

Turning to `CCCCC1(O)c2ccccc2C(=O)N1C1CC1` (centres unmarked) [n-butenylphthalide derivative, N-cyclopropyl-3-n-butyl-3-hydroxy-phthalide lactam], in data set [2] (setting [9]), the CL1 is 893.769 L/h/kg, the CL2 is 802.825 L/h/kg, the CL3 is -50.58 L/h/kg and the K10 came to 1.689 h⁻¹. Further, in data set [2] (setting [9]), the K12 is 1.517 h⁻¹, the K13 was -0.096 h⁻¹, the K21 was 0.543 h⁻¹ and the K31 was determined as 0.167 h⁻¹. Moreover, in data set [2] (setting [9]), the Ka is 2.425 h⁻¹, the “R_AUC(t/∞)” value worked out at 89.9%, the T1/2ka came out at 0.286 and the Tmax was found to be 1.768 h. Further, in data set [2] (setting [9]), the V1 is listed as 529.323 L/kg, the V2 is 1478.868 L/kg, the V3 is -302.598 L/kg and the t1/2α is on record as 0.204 h. Also, in data set [2] (setting [9]), the t1/2β is reported as 3.029 h and the t1/2γ came to 3.513 h. Also, in data set [3], the “protective effect on PC12 nerve cells” value was “almost the same protective effects”.

For the compound `CCCCC1OC(=O)c2ccccc21` (centres unmarked) [butylphthalide, reference compound], the cell viability in data set [3] (drug positive control group, 250 μM H2O2, concentration not given) worked out at 68%.

What is called AUC(0-inf) is total exposure, with the tail of the curve extrapolated. As a reminder, the AUC(0-t) is the area under the concentration-time curve up to a stated or last time point. A word on the Cmax: it is the maximum level reached in the sampled fluid or tissue. A word on the Tmax: it is the time at which the peak concentration occurs. The term viability denotes a read-out of living cells in per cent, often relative to untreated cells. As a reminder, the cell viability is a per cent measure of how many cells are alive, often set against a control.

(Values after US11919857B2, “Phthalide derivative, preparation method and use thereof” (LANZHOU INSTITUTE OF CHEMICAL PHYSICS, CHINESE ACADEMY OF …, priority 2018, dated 2024).)
